# Results: ChEMBL document CHEMBL4732067, “Synthesis and evaluation of new compounds bearing 3-(4-aminopiperidin-1-yl)methyl magnolol scaffold as anticancer agents for the treatment of non-small cell lung cancer via targeting autophagy” (Eur J Med Chem, 2021)
# pIC50: −log10 of the molar value.
# Columns and labels:
# NCI-H460 [1] = assay: Induction of autophagy in human NCI-H460 cells assessed as up regulation of LC3-2 protein expression after 24 hrs by Western blot analysis; format: functional, cell-based; settings: dose 0.5-10 µM
# NCI-H460 [2] = assay: Induction of apoptosis in human NCI-H460 cells assessed as early apoptotic cells at 1 uM after 48 hrs by Annexin V-FITC/propidium iodide staining based flow cytometric analysis (reference value: 3.980 %); format: functional
# [3] = Toxicity in nude BALB/c mouse xenografted with C26 cells assessed as abnormalities in kidney size and morphology at 50 mg/kg, po administered once daily; format: organism-based; settings: in vivo
# NCI-H460 [4] = assay: Induction of apoptosis in human NCI-H460 cells assessed as late apoptotic cells at 5 uM after 48 hrs by Annexin V-FITC/propidium iodide staining based flow cytometric analysis (reference value: 3.995 %); format: functional
# NCI-H460 [5] = assay: Induction of cell cycle arrest in human NCI-H460 cells assessed as accumulation at G2/M phase at 0.5 uM incubated for 24 hrs by propidium iodide staining based flow cytometry (reference value: 16.71 %); format: functional
# NCI-H1650 = assay: Antiproliferative activity against human NCI-H1650 cells expressing EGFR mutant assessed as reduction in cell viability after 72 hrs by MTT assay; format: functional, cell-based; settings: NCI-H1650, 72 h
# NCI-H460 [6] = assay: Antitumor activity against human NCI-H460 cells xenografted in nude BABL/c mouse assessed as tumor growth inhibition at 20 mg/kg, po administered once daily and measured every two days by caliper method relative to control; format: functional; settings: 48 h, read-out: TGI
# [7] = Toxicity in nude BALB/c mouse xenografted with C26 cells assessed as change in body weight at 50 mg/kg, po administered once daily and measured every two days; format: organism-based; settings: in vivo
# [8] = Toxicity in nude BALB/c mouse xenografted with C26 cells assessed as abnormalities in heart size and morphology at 50 mg/kg, po administered once daily; format: organism-based; settings: in vivo
# NCI-H460 [9] = assay: Induction of apoptosis in human NCI-H460 cells assessed as late apoptotic cells at 1 uM after 48 hrs by Annexin V-FITC/propidium iodide staining based flow cytometric analysis (reference value: 3.995 %); format: functional
# NCI-H460 [10] = assay: Induction of apoptosis in human NCI-H460 cells assessed as necrotic cells at 1 uM after 48 hrs by Annexin V-FITC/propidium iodide staining based flow cytometric analysis (reference value: 0.498 %); format: functional
# NCI-H460 [11] = assay: Induction of cell cycle arrest in human NCI-H460 cells assessed as accumulation at G0/G1 phase at 1 uM incubated for 24 hrs by propidium iodide staining based flow cytometry (reference value: 53.97 %); format: functional
# [12] = Metabolic stability in human liver microsomes assessed as half life; format: ADME, Microsome
# NCI-H460 [13] = assay: Induction of apoptosis in human NCI-H460 cells assessed as early apoptotic cells at 2 uM after 48 hrs by Annexin V-FITC/propidium iodide staining based flow cytometric analysis (reference value: 3.980 %); format: functional
# NCI-H460 [14] = assay: Induction of apoptosis in human NCI-H460 cells assessed as viable cells at 10 uM after 48 hrs by Annexin V-FITC/propidium iodide staining based flow cytometric analysis (reference value: 91.528 %); format: functional; settings: read-out: Activity
# NCI-H460 [15] = assay: Antitumor activity against human NCI-H460 cells xenografted in nude BABL/c mouse assessed as tumor growth inhibition at 20 mg/kg, po administered once daily and measured every two days in presence of chloroquine diphosphate by caliper method relative to control; format: functional; settings: 48 h, read-out: TGI
structure (smiles),measurement,setting,value
C=CCc1ccc(OC(C)C)c(-c2cc(CC=C)cc(CN3CCC(N)CC3)c2O)c1,Activity,NCI-H460 [1],Dose-dependent effect
same,Activity,NCI-H460 [2],4.467%
same,Activity,[3],Non-Toxic
same,Activity,NCI-H460 [4],15.76%
same,Activity,NCI-H460 [5],21.64%
same,pIC50,NCI-H1650,6.09
same,inhibition in vivo at 20 mg/kg,NCI-H460 [6],33.5%
same,Activity,[7],Toxic
same,Activity,[8],Non-Toxic
same,Activity,NCI-H460 [9],3.979%
same,Activity,NCI-H460 [10],0.394%
same,Activity,NCI-H460 [11],56.47%
same,half-life,[12],2.62 h
same,Activity,NCI-H460 [13],5.363%
same,viability at 10 µM,NCI-H460 [14],30%
same,inhibition in vivo at 20 mg/kg,NCI-H460 [15],55.9%
